Experiments:
[1] = molecular target: unphosphorylated PDGFRβ kinase (uPDGFRβ, Seq. ID No. 3) (Homo sapiens (Human), UniProt P09619); assay: Unphosphorylated PDGFRβ kinase assay (coupled pyruvate kinase/lactate dehydrogenase); type: biochemical; conditions: enzymatic assay, ATP 500 μM
Method: Unphosphorylated PDGFRβ (uPDGFRβ) Kinase (Seq. ID No. 3) Assay
Activity of unphosphorylated PDGFRβ kinase (uPDGFRβ, Seq. ID No. 3) was determined by following the production of ADP from the kinase reaction with ATP and poly E4Y as substrates through coupling with the pyruvate kinase/lactate dehydrogenase system (e.g., Schindler et al. Science (2000) 289: 1938-1942). In this assay, the oxidation of NADH (thus the decrease at A340 nm) was continuously monitored spectrophometrically. The reaction mixture (100 μL) contained PDGFRβ (DeCode, 15.7 nM), polyE4Y (2.5 mg/mL), MgCl2 (10 mM), pyruvate kinase (4 units), lactate dehydrogenase (0.7 units), phosphoenol pyruvate (1 mM) and NADH (0.28 mM) and ATP (500 μM) in a 90 mM Tris buffer containing 0.2% octyl-glucoside and 1% DMSO, at pH 7.5. The inhibition reaction was started by mixing serial diluted test compound with the above reaction mixture. The absorption at 340 nm was monitored continuously for 4 h at 30° C. on a Polarstar Optima or Synergy 2 plate reader. The reaction rate was calculated using the 1.5 to 2.5 h time frame. Percent inhibition was obtained by comparison of reaction rate with that of a control (i.e., with no test compound). IC50 values were calculated from a series of percent inhibition values determined at a range of inhibitor concentrations using software routines as implemented in the GraphPad Prism software package.
uPDGFRβ Kinase Sequence (Residues 557-1106) Used for Screening (Seq ID No. 3)

[2] = molecular target: unphosphorylated c-FMS kinase (uFMS, Seq. ID no. 1) (Homo sapiens (Human), UniProt P07333); assay: uFMS kinase assay (ADP production coupled to pyruvate kinase/lactate dehydrogenase); type: biochemical; conditions: enzymatic assay, ATP 500 μM; read-out: uFMS
unphosphorylated c-FMS kinase (uFMS, Seq. ID no. 1), sequence (P07333 538-972): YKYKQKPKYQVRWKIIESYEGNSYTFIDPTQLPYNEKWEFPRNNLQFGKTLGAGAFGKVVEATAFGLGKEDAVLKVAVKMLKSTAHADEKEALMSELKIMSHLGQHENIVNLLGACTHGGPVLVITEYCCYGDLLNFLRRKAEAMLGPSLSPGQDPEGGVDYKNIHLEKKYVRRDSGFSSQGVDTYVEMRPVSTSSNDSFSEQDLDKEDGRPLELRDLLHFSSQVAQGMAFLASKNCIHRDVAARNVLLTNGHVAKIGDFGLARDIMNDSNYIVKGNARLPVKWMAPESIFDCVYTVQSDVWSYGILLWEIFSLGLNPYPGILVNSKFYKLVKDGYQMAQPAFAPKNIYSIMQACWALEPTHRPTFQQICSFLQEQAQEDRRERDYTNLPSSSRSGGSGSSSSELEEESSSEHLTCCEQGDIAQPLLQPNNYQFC
Method: uFMS kinase (Seq. ID No. 1) Assay
In this assay, the oxidation of NADH (thus the decrease at A340 nm) was continuously monitored spectrophometrically. The reaction mixture (100 μL) contained FMS (purchased from Millipore) (10 nM), polyE4Y (1 mg/mL), MgCl2 (10 mM), pyruvate kinase (4 units), lactate dehydrogenase (0.7 units), phosphoenol pyruvate (1 mM), NADH (0.28 mM) and ATP (500 μM) in 90 mM Tris buffer containing 0.2% octyl-glucoside and 1% DMSO, pH 7.5. The inhibition reaction was started by mixing serial diluted test compound with the above reaction mixture. The absorption at 340 nm was monitored continuously for 4 hours at 30° C. on Synergy 2 plate reader. The reaction rate was calculated using the 3 to 4 h time frame. Percent inhibition was obtained by comparison of reaction rate with that of a control (i.e., in the absence of test compound). IC50 values were calculated from a series of percent inhibition values determined at a range of inhibitor concentrations using software routines as implemented in the GraphPad Prism software package.
uFMS Kinase Sequence (Y538-End) Used for Screening (Seq. ID No. 1)

M-NFS-60 cells = assay: M-NFS-60 cell proliferation assay (resazurin); type: cell-based; conditions: 67 h incubation
Method: M-NFS-60 cells (catalog #CRL-1838) were obtained from the American Type Culture Collection (ATCC, Manassas, Va.). Briefly, cells were grown in suspension in RPMI 1640 medium supplemented with 10% characterized fetal bovine serum (Invitrogen, Carlsbad, Calif.), 0.05 mM 2-mercaptoethanol, and 20 ng/mL mouse recombinant macrophage colony stimulating factor (M-CSF) at 37° C., 5% CO2, and 95% humidity. Cells were allowed to expand until reaching saturation at which point they were subcultured or harvested for assay use.
M-NFS-60 Cell Proliferation Assay
A serial dilution of test compound was dispensed into a 384-well black clear bottom plate (Corning, Corning, N.Y.). Two thousand five hundred cells were added per well in 50 μL complete growth medium. Plates were incubated for 67 h at 37° C., 5% CO2, and 95% humidity. At the end of the incubation period 10 μL of a 440 μM solution of resazurin (Sigma, St. Louis, Mo.) in PBS was added to each well and incubated for an additional 5 h at 37° C., 5% CO2, and 95% humidity. Plates were read on a Synergy2 reader (Biotek, Winooski, Vt.) using an excitation of 540 nm and an emission of 600 nm. IC50 values were calculated from a series of percent inhibition values determined at a range of inhibitor concentrations using software routines as implemented in the GraphPad Prism software package.

osteoclast precursors = assay: Osteoclast tartrate-resistant acid phosphatase assay; type: cell-based; conditions: 7-14 days, RANKL and M-CSF
Method: Osteoclast Tartrate-Resistant Acid Phosphatase Assay
A serial dilution of test compound was dispensed into a 384-well black clear bottom plate (Nalge Nunc International, Rochester, N.Y.). Compound was diluted by the addition of DMEM media supplemented with 10% characterized fetal bovine serum (Invitrogen, Carlsbad, Calif.). Diluted compound was transferred to a 384-well black clear bottom plate. Two-thousand five hundred osteoclast precursors (Lonza, Walkersville, Md.) were added per well in growth media containing Receptor Activator of Nuclear Factor Kappa-beta ligand (RANKL) and M-CSF (R&D Systems, Minneapolis, Minn.). Plates were incubated for 7-14 days at 37 degrees Celsius, 5% CO2, and 95% humidity to allow differentiation of osteoclast precursors. At the end of the incubation period, 10 μL of supernatant from each well was transferred to a clear 384-well plate. Tartrate-resistant acid phosphatase activity in the supernatant samples was determined using an acid phosphatase assay kit (Sigma, St. Louis, Mo.). Absorbance was measured at 550 nm using a plate reader. Data was analyzed using Prism software (Graphpad, San Diego, Calif.) to calculate IC50 values.

unphosphorylated PDGFRβ kinase (uPDGFRβ, Seq. ID No. 3), sequence (P09619 557-1106): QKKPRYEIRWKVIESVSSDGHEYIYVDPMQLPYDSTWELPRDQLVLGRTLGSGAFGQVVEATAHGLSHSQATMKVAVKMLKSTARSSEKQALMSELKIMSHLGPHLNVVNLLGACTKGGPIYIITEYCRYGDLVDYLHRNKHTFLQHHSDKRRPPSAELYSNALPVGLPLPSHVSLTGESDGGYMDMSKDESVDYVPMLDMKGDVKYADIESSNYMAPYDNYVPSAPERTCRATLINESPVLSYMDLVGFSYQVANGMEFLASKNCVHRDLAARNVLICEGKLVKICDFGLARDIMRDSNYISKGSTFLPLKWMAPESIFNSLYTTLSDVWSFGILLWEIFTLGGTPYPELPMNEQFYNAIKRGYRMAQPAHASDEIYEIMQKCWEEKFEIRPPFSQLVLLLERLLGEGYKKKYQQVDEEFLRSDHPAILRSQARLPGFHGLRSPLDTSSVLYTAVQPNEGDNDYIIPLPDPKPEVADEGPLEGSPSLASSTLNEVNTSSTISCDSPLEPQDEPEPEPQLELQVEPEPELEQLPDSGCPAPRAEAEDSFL

| IC50 [1] | IC50 [2] | IC50 (osteoclast precursors) | IC50 (osteoclast precursors; Osteoclast) | SMILES | IC50 (M-NFS-60 cells) |
| --- | --- | --- | --- | --- | --- |
| > 1000 nM | < 10 nM | < 10 nM |  | Cn1cc(-c2cc(Oc3ccc(NC(=O)N4CCN([C@@H]5CCOC5)C4=O)nc3)ccn2)cn1 [Example 27, (R)—N-(5-((2-(1-methyl-1H-pyrazol-4-yl)pyridin-4-yl)oxy)pyridin-2-yl)-2-oxo-3-(tetrahydrofuran-3-yl)imidazolidine-1-carboxamide] | 10 to 100 nM |
| > 1000 nM | 10 to 100 nM |  | 100 to 1000 nM | COCCCN1CCN(C(=O)Nc2cc(Cl)c(Oc3ccnc(-c4cnn(C)c4)c3)cc2F)C1=O [Example 103, N-(5-chloro-2-fluoro-4-((2-(1-methyl-1H-pyrazol-4-yl)pyridin-4-yl)oxy)phenyl)-3-(3-methoxypropyl)-2-oxoimidazolidine-1-carboxamide] | 100 to 1000 nM |
| > 1000 nM | 100 to 1000 nM |  | 100 to 1000 nM | Cn1cc(-c2cc(Oc3cc(F)c(NC(=O)N4CCN(C5COC5)C4=O)cc3Cl)ccn2)cn1 [Example 104, N-(5-chloro-2-fluoro-4-((2-(1-methyl-1H-pyrazol-4-yl)pyridin-4-yl)oxy)phenyl)-3-(oxetan-3-yl)-2-oxoimidazolidine-1-carboxamide] | > 1000 nM |
| > 1000 nM | 10 to 100 nM |  | 10 to 100 nM | COC[C@H](C)N1CCN(C(=O)Nc2cc(Cl)c(Oc3ccnc(-c4cnn(C)c4)c3)cc2F)C1=O [Example 105, (S)—N-(5-chloro-2-fluoro-4-((2-(1-methyl-1H-pyrazol-4-yl)pyridin-4-yl)oxy)phenyl)-3-(1-methoxypropan-2-yl)-2-oxoimidazolidine-1-carboxamide] | 100 to 1000 nM |
| > 1000 nM | 10 to 100 nM |  | 100 to 1000 nM | Cn1cc(-c2cc(Oc3cc(F)c(NC(=O)N4CCN(CCOC(F)(F)F)C4=O)cc3Cl)ccn2)cn1 [Example 106, N-(5-chloro-2-fluoro-4-((2-(1-methyl-1H-pyrazol-4-yl)pyridin-4-yl)oxy)phenyl)-2-oxo-3-(2-(trifluoromethoxy)ethyl)imidazolidine-1-carboxamide] | > 1000 nM |
| 100 to 1000 nM | < 10 nM |  | 10 to 100 nM | Cn1cc(-c2cc(Oc3cc(F)c(NC(=O)N4CCN(C5CCCCC5)C4=O)cc3Cl)ccn2)cn1 [Example 107, N-(5-chloro-2-fluoro-4-((2-(1-methyl-1H-pyrazol-4-yl)pyridin-4-yl)oxy)phenyl)-3-cyclohexyl-2-oxoimidazolidine-1-carboxamide] | 10 to 100 nM |
| > 1000 nM | 10 to 100 nM |  | 100 to 1000 nM | COC(C)(C)CCN1CCN(C(=O)Nc2cc(Cl)c(Oc3ccnc(-c4cnn(C)c4)c3)cc2F)C1=O [Example 108, N-(5-chloro-2-fluoro-4-((2-(1-methyl-1H-pyrazol-4-yl)pyridin-4-yl)oxy)phenyl)-3-(3-methoxy-3-methylbutyl)-2-oxoimidazolidine-1-carboxamide] | 100 to 1000 nM |
| > 1000 nM | < 10 nM |  |  | Cn1cc(-c2cc(Oc3cc(F)c(NC(=O)N4CCN(C5CCC(F)(F)CC5)C4=O)cc3Cl)ccn2)cn1 [Example 110, N-(5-chloro-2-fluoro-4-((2-(1-methyl-1H-pyrazol-4-yl)pyridin-4-yl)oxy)phenyl)-3-(4,4-difluorocyclohexyl)-2-oxoimidazolidine-1-carboxamide] | 10 to 100 nM |
| > 1000 nM | < 10 nM |  | < 10 nM | Cn1cc(-c2cc(Oc3cc(F)c(NC(=O)N4CCN(C5CCCC5)C4=O)cc3Cl)ccn2)cn1 [Example 111, N-(5-chloro-2-fluoro-4-((2-(1-methyl-1H-pyrazol-4-yl)pyridin-4-yl)oxy)phenyl)-3-cyclopentyl-2-oxoimidazolidine-1-carboxamide] | 10 to 100 nM |

Source: US9133183B2, “Imidazolidinones and analogs exhibiting anti-cancer and anti-proliferative activities” (Deciphera Pharmaceuticals, LLC, priority 2013, dated 2015)
